In patent publication US20020016330A1, “Materials and methods for killing nematodes and nematode eggs” (priority 2000, published 2002):

Key:
Caenorhabditis elegans [1] = assay: C. elegans L1 nematicidal dose response, 5 day visual viability score (3-fold dilutions); format: in vivo; parameters: key: Dead: only stiff L1s (no movement); Dead (L4): worms are dead, but at a later larval stage; majority of worms are L1 (based on size); majority of worms are L2 (based on size); majority of worms are L3 (based on size); majority of worms are L4 (based on size); AD: majority of worms are adult; #AD: 5 adult worms or less; B!: sterile (0-25 progeny); B: low broodsize (25-100 progeny); ˜B: moderate broodsize (100-250 progeny); <: reduced broodsize (250-500 progeny); OK: no effect (˜1000+ progeny); conditions: for 5 Day Visual Score V5: 0.9 μM; for 5 Day Visual Score V2: 23.3 μM; for 5 Day Visual Score V1: 70 μM; for 5 Day Visual Score V6: 0.3 μM; for 5 Day Visual Score V3: 7.8 μM; for 5 Day Visual Score V4: 2.6 μM
Procedure: Caenorhabditis elegans adults were grown on Nematode Growth Medium (NGM) until they produced eggs, then the adults were removed.
The eggs were allowed to hatch, and the L1 larvae collected. See The Nematode Caenorhabditis elegans (1988) Cold Spring Harbor Laboratory Press. Using a Matrix Programmable Pipette, the L1s were distributed into 96-well tissue culture plates, 20 L1 in 50 μl NGM per well. Antibiotic/Antimyotic was added to each well, and 1% by weight E. coli strain HB101. The subject anthelmintic compounds were stored at 5 mM in 100% DMSO. 0.7 μl of compounds 1-31 were added to the left-most column of wells to yield a final concentration of 70 μM in 1.4% DMSO, with 1.4% DMSO only as the control. The compounds were then subjected to 5 more 3-fold dilutions from left to right to yield 6 column concentrations of 70 μM, 23.3 μM, 7.8 μM, 2.6 μM, 0.9 μM, and 0.3 μM. Plates were stored in air-tight Rubbermaid plastic boxes at 20° C. The nematodes had cleared all control wells by day 4, and nematode viability was scored by visual examination under a 100× dissecting microscope on day 5. A visual viability scoring system was used as follows:
Column VI has a compound concentration of 70 μM with sequential 3-fold dilutions reported in columns V2, V3, V4, V5, and V6, respectively, such that the V6 concentration was 0.3 μM.
(§1) The nematicidal activity of anthelmintic Compositions 48-68 were determined in accordance with the procedure outlined in Example 2.

Caenorhabditis elegans [2] = assay: Follow-up HTS Run (mOD, % Run, visual score); conditions: in vivo
Procedure: as §1

Caenorhabditis elegans [3] = assay: Initial HTS Run (mOD, % Run, visual score); conditions: in vivo
Procedure: as §1

[4] = Table 3, procedure of Example 2

With `Cc1ccc(C(CC(=O)c2ccccc2)Nc2ccc(I)cc2F)o1` (centres unmarked) [AKC 129] the “5 Day Visual Score V5” value (Caenorhabditis elegans [1]; scored day 5) was “OK (no effect (˜1000+ progeny))”, the “5 Day Visual Score V2” value (Caenorhabditis elegans [1]; scored day 5) was “Dead” and the “5 Day Visual Score V1” value (Caenorhabditis elegans [1]; scored day 5) was “Dead”.

For `CCC1CCCCN1c1cc(Oc2ccc3oc4ccccc4c3c2)ncn1` (centres unmarked) [AKC 340], the “5 Day Visual Score V2” value (Caenorhabditis elegans [1]; scored day 5) was “L1” and the “5 Day Visual Score V1” value (Caenorhabditis elegans [1]; scored day 5) was “L1”.

In the case of `CCCc1ccc(C(Nc2ccc(-c3ccccc3)cc2)C2CCCCC2=O)cc1` (centres unmarked) [AKC 132], the “5 Day Visual Score V6” value (Caenorhabditis elegans [1]; scored day 5) is reported as “Dead”, the “5 Day Visual Score V3” value (Caenorhabditis elegans [1]; scored day 5) is reported as “Dead” and the “5 Day Visual Score V2” value (Caenorhabditis elegans [1]; scored day 5) is reported as “Dead”. For the same compound, the “5 Day Visual Score V1” value (Caenorhabditis elegans [1]; scored day 5) was “Dead(L2)”.

With `CC(=O)Nc1ccc(S(=O)(=O)N2CCN(C(=O)c3cc(C(F)(F)F)cc(C(F)(F)F)c3)CC2C(=O)NCc2ccccc2)cc1` (centres unmarked) [AKC 163] the “Follow-up HTS Run % Run” value (Caenorhabditis elegans [2]) was 136%, the “Follow-up HTS Run mOD” value (Caenorhabditis elegans [2]) was 219 mOD and the “5 Day Visual Score V6” value (Caenorhabditis elegans [1]; [4]) was “OK (no effect (˜1000+ progeny))”. For the same compound, the “5 Day Visual Score V5” value (Caenorhabditis elegans [1]; [4]) was “OK (no effect (˜1000+ progeny))”, the “5 Day Visual Score V4” value (Caenorhabditis elegans [1]; [4]) was “OK (no effect (˜1000+ progeny))” and the “5 Day Visual Score V3” value (Caenorhabditis elegans [1]; [4]) was “OK (no effect (˜1000+ progeny))”. For the same compound, the “5 Day Visual Score V2” value (Caenorhabditis elegans [1]; [4]) was “< (reduced broodsize (250-500 progeny))”, the “Initial HTS Run % Run” value (Caenorhabditis elegans [3]) was 119% and the “Initial HTS Run Visual Score” value (Caenorhabditis elegans [3]) was “L2/L3(DEAD)”. For the same compound, the “Initial HTS Run mOD” value (Caenorhabditis elegans [3]) was 146 mOD.

`O=C(NCCc1ccccc1F)C1C(c2ccc(F)cc2)=NOC1c1ccc(-c2ccccc2)cc1` (centres unmarked) [AKC 2153] was tested, and the “5 Day Visual Score V2” value (Caenorhabditis elegans [1]; scored day 5) was “L1” and the “5 Day Visual Score V1” value (Caenorhabditis elegans [1]; scored day 5) was “L1”.

With `COc1ccccc1-c1noc(C(C)CNC(=O)Nc2ccc(OC(F)(F)F)cc2)n1` (centres unmarked) [AKC 111] the “5 Day Visual Score V6” value (Caenorhabditis elegans [1]; scored day 5) was “OK (no effect (˜1000+ progeny))”, the “5 Day Visual Score V4” value (Caenorhabditis elegans [1]; scored day 5) was “Dead(L3/L” and the “5 Day Visual Score V3” value (Caenorhabditis elegans [1]; scored day 5) was “L2”. The “5 Day Visual Score V2” value (Caenorhabditis elegans [1]; scored day 5) was “Dead” and the “5 Day Visual Score V1” value (Caenorhabditis elegans [1]; scored day 5) was “Dead”.

With `Cc1ccc(-c2noc(C3CCC(CNC(=O)Nc4ccc(OC(F)(F)F)cc4)CC3)n2)cc1C` (centres unmarked) [AKC 112] the “5 Day Visual Score V6” value (Caenorhabditis elegans [1]; scored day 5) was “OK (no effect (˜1000+ progeny))” and the “5 Day Visual Score V5” value (Caenorhabditis elegans [1]; scored day 5) was “#AD/˜B”.

In the case of `CCOc1ccc(C2ON=C(c3ccc(N(C)C)cc3)C2C(=O)NCCc2ccc(F)cc2)cc1` (centres unmarked) [AKC 123], the “5 Day Visual Score V6” value (Caenorhabditis elegans [1]; scored day 5) is reported as “#AD/˜B” and the “5 Day Visual Score V1” value (Caenorhabditis elegans [1]; scored day 5) is reported as “L1”.

With `COc1ccc(C2=NOC(c3ccc(-c4ccccc4)cc3)C2C(=O)NCCc2ccccc2F)cc1` (centres unmarked) [AKC 121] the “5 Day Visual Score V4” value (Caenorhabditis elegans [1]; scored day 5) was “#AD/˜B”, the “5 Day Visual Score V2” value (Caenorhabditis elegans [1]; scored day 5) was “L1” and the “5 Day Visual Score V1” value (Caenorhabditis elegans [1]; scored day 5) was “L1”.

`CCCCOc1ccc(C(=O)N2CC(OCCCc3ccccc3)CC2C(=O)NCc2ccccc2OC)cc1` (centres unmarked) [AKC 126] was tested, and the “5 Day Visual Score V6” value (Caenorhabditis elegans [1]; scored day 5) was “#AD/˜B” and the “5 Day Visual Score V4” value (Caenorhabditis elegans [1]; scored day 5) was “#AD/˜B”.

In the case of `CCCCOc1ccc(C(=O)N2CC(OCCCc3ccccc3)CC2C(=O)NCc2ccccc2Br)cc1` (centres unmarked) [AKC 102], the “5 Day Visual Score V4” value (Caenorhabditis elegans [1]; scored day 5) is reported as “L3”.

In the case of `CCOc1cccc(C2ON=C(c3ccccc3OCC)C2C(=O)NCCc2ccc(OC)c(OCC)c2)c1` (centres unmarked) [AKC 124], the “5 Day Visual Score V6” value (Caenorhabditis elegans [1]; scored day 5) is reported as “L4/#AD/B”, the “5 Day Visual Score V5” value (Caenorhabditis elegans [1]; scored day 5) is reported as “L4/#AD/B” and the “5 Day Visual Score V4” value (Caenorhabditis elegans [1]; scored day 5) is reported as “L4/#AD/B”.

For `CC(C)(C)c1csc(NC(=O)CC2CCCc3ccccc32)n1` (centres unmarked) [AKC 175], the “Follow-up HTS Run % Run” value (Caenorhabditis elegans [2]) was 99%, the “Follow-up HTS Run Visual Score” value (Caenorhabditis elegans [2]) was “L4/AD/B!” and the “Follow-up HTS Run mOD” value (Caenorhabditis elegans [2]) was 159 mOD. For the same compound, the “5 Day Visual Score V6” value (Caenorhabditis elegans [1]; [4]) was “OK (no effect (˜1000+ progeny))”, the “5 Day Visual Score V5” value (Caenorhabditis elegans [1]; [4]) was “OK (no effect (˜1000+ progeny))” and the “5 Day Visual Score V4” value (Caenorhabditis elegans [1]; [4]) was “OK (no effect (˜1000+ progeny))”. The “5 Day Visual Score V3” value (Caenorhabditis elegans [1]; [4]) was “OK (no effect (˜1000+ progeny))”, the “5 Day Visual Score V2” value (Caenorhabditis elegans [1]; [4]) was “OK (no effect (˜1000+ progeny))” and the “5 Day Visual Score V1” value (Caenorhabditis elegans [1]; [4]) was “< (reduced broodsize (250-500 progeny))”. The “Initial HTS Run % Run” value (Caenorhabditis elegans [3]) was 85%, the “Initial HTS Run Visual Score” value (Caenorhabditis elegans [3]) was “L4/AD/B” and the “Initial HTS Run mOD” value (Caenorhabditis elegans [3]) was 104 mOD.

With `CCCCCCCCS(=O)(=O)N1CCN(C(=O)C=Cc2cccc(C(F)(F)F)c2)CC1C(=O)NCc1ccccc1C(F)(F)F` (centres unmarked) [AKC 173] the “Follow-up HTS Run % Run” value (Caenorhabditis elegans [2]) was 107%, the “Follow-up HTS Run mOD” value (Caenorhabditis elegans [2]) was 172 mOD and the “5 Day Visual Score V6” value (Caenorhabditis elegans [1]; [4]) was “OK (no effect (˜1000+ progeny))”. For the same compound, the “5 Day Visual Score V5” value (Caenorhabditis elegans [1]; [4]) was “OK (no effect (˜1000+ progeny))”, the “5 Day Visual Score V4” value (Caenorhabditis elegans [1]; [4]) was “OK (no effect (˜1000+ progeny))” and the “5 Day Visual Score V3” value (Caenorhabditis elegans [1]; [4]) was “OK (no effect (˜1000+ progeny))”. The “Initial HTS Run % Run” value (Caenorhabditis elegans [3]) was 98% and the “Initial HTS Run mOD” value (Caenorhabditis elegans [3]) was 120 mOD.
